Drawing on patent publication US20230286958A1, “PLASMA KALLIKREIN INHIBITORS” (Merck Sharp & Dohme LLC, priority 2020, published 2023), this text covers IC50 for 7 compounds.

As a reminder, the IC50 is the concentration that inhibits the measured activity by half. Higher therefore signals lower potency.

The target in one test is human Factor XIa (Homo sapiens (Human), UniProt P03951). Briefly: Factor XIa Assay (fluorogenic substrate GPR-AFC). The settings on record: Factor XIa (FXIa). Format: biochemical.
human Factor XIa, sequence (P03951 388-625 limits assumed): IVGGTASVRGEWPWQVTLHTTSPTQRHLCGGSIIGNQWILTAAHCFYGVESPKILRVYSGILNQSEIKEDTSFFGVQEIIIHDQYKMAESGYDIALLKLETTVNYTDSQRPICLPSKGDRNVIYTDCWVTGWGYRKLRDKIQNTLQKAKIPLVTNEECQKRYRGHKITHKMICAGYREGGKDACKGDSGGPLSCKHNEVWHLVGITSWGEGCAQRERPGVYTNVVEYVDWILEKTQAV
human Factor XIa, sequence (P03951 19-387 partner limits assumed): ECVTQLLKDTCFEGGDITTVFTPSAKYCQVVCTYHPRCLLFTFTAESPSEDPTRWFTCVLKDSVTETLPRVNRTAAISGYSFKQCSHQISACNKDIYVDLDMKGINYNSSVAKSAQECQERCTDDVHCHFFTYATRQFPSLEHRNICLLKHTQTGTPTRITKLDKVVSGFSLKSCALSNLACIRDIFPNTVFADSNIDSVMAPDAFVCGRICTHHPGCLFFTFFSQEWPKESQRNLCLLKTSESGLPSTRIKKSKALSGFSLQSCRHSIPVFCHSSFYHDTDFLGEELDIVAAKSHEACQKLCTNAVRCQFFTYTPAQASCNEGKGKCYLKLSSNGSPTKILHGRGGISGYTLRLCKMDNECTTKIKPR
Another test addresses Human plasma kallikrein (Homo sapiens (Human), UniProt P03952). The test can be described thus: Kallikrein Assay (fluorogenic substrate Acetyl-K-P-R-AFC). Format: biochemical. The following applies: Plasma Kallikrein (PKal). The procedure, abridged:
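Ki is derived from IC50 with the Cheng-Prusoff equation, and IC50 from the inflection point of a four-parameter logistic curve. The rate of AFC release is read with 0.5 nM purified enzyme and […] substrate at room temperature or 37 °C.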

Human plasma kallikrein, sequence (P03952 391-638): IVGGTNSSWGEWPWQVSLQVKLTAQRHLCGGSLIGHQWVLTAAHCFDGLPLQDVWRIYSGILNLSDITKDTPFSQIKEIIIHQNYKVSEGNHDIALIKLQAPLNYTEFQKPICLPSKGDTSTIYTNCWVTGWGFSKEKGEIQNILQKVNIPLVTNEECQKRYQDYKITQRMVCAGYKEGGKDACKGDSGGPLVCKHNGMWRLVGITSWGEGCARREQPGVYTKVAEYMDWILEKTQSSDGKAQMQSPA
Human plasma kallikrein, sequence (P03952 20-390 partner): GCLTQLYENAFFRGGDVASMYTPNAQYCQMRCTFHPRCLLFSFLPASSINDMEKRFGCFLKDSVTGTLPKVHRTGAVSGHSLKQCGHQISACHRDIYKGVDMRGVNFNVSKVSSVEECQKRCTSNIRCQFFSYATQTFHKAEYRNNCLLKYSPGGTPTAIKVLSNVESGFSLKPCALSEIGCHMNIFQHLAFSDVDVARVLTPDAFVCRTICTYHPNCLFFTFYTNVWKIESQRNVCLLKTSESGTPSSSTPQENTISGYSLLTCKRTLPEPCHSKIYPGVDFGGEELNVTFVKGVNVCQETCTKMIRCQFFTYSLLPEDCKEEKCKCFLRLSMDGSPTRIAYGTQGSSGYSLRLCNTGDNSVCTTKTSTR

Take `Cc1c(C(CO)n2cc(NC(=O)c3cncc(-c4c(C(F)F)ccc(Cl)c4F)n3)cn2)cnc(N2C[C@H]3C[C@H]3C2=O)c1C` (single isomer, unassigned) [Example 168, 6-(3-Chloro-6-(difluoromethyl)-2-fluorophenyl)-N-(1-((S or R)-1-(4,5-dimethyl-6-((1R,5S)-2-oxo-3-azabicyclo[3.1.0]hexan-3-yl)pyridin-3-yl)-2-hydroxyethyl)-1H-pyrazol-4-yl)pyrazine-2-carboxamide]: the IC50 against human Factor XIa was 261 nM; at Human plasma kallikrein, 0.4 nM.

As to `CC(c1cnc(N2C[C@H]3C[C@H]3C2=O)c2c1CCC2)n1cc(NC(=O)c2cncc(-c3c(C(F)F)ccc(Cl)c3F)n2)cn1` (single isomer, unassigned) [Example 142, 6-(3-Chloro-6-(difluoromethyl)-2-fluorophenyl)-N-(1-((R or S)-1-(1-((1R,5S)-2-oxo-3-azabicyclo[3.1.0]hexan-3-yl)-6,7-dihydro-5H-cyclopenta[c]pyridin-4-yl)ethyl)-1H-pyrazol-4-yl)pyrazine-2-carboxamide], the IC50 is 373 nM against human Factor XIa and 0.6 nM on Human plasma kallikrein.

As for `Cc1cc(C(C)n2cc(NC(=O)c3nc(-c4c(OC(F)F)ccc(Cl)c4F)cnc3C)cn2)cnc1N1C[C@H]2C[C@H]2C1=O` (single isomer, unassigned) [Example 131, 6-(3-Chloro-6-(difluoromethoxy)-2-fluorophenyl)-3-methyl-N-(1-((S or R)-1-(5-methyl-6-((1R,5S)-2-oxo-3-azabicyclo[3.1.0]hexan-3-yl)pyridin-3-yl)ethyl)-1H-pyrazol-4-yl)pyrazine-2-carboxamide], the IC50 at human Factor XIa was 545 nM; on Human plasma kallikrein it was 0.5 nM.

For the compound `Cc1cc([C@H](C)n2cc(NC(=O)c3cncc(-c4c(C(F)F)ccc(Cl)c4F)n3)cn2)nnc1N1C[C@H]2C[C@H]2C1=O` [Example 37, 6-(3-Chloro-6-(difluoromethyl)-2-fluorophenyl)-N-(1-((S)-1-(5-methyl-6-((1R,5S)-2-oxo-3-azabicyclo[3.1.0]hexan-3-yl)pyridazin-3-yl)ethyl)-1H-pyrazol-4-yl)pyrazine-2-carboxamide], the IC50 amounted to 1270 nM on human Factor XIa and 1.2 nM at Human plasma kallikrein.

As to `Cc1cc(C(C)n2cc(NC(=O)c3nc(-c4c(C#N)ccc(Cl)c4F)cnc3C)cn2)cnc1N1C[C@H]2C[C@H]2C1=O` (single isomer, unassigned) [Example 140, 6-(3-Chloro-6-cyano-2-fluorophenyl)-3-methyl-N-(1-((R or S)-1-(5-methyl-6-((IR,5S)-2-oxo-3-azabicyclo[3.1.0]hexan-3-yl)pyridin-3-yl)ethyl)-1H-pyrazol-4-yl)pyrazine-2-carboxamide], the values for the IC50 on human Factor XIa and against Human plasma kallikrein were 972 nM and 0.6 nM, respectively.

In the case of `Cc1nc(N2C[C@@H]3C[C@@H]3C2=O)ncc1[C@H](CO)n1cc(NC(=O)c2cncc(-c3c(C(F)F)ccc(Cl)c3F)n2)cn1` [Example 158, 6-(3-Chloro-6-(difluoromethyl)-2-fluorophenyl)-N-(1-((R)-2-hydroxy-1-(4-methyl-2-((1S,5R)-2-oxo-3-azabicyclo[3.1.0]hexan-3-yl)pyrimidin-5-yl)ethyl)-1H-pyrazol-4-yl)pyrazine-2-carboxamide], the results for the concentration for half-maximal inhibition (IC50) against human Factor XIa and against Human plasma kallikrein were over 10000 nM and 2720 nM, respectively.

For `Cc1c(N2C[C@H]3C[C@H]3C2=O)cnc(C(C)n2cc(NC(=O)c3cncc(-c4c(C(F)F)ccc(Cl)c4F)n3)cn2)c1C` (single isomer, unassigned) [Example 243, 6-(3-Chloro-6-(difluoromethyl)-2-fluorophenyl)-N-(1-((R or S)-1-(3,4-dimethyl-5-((1R,5S)-2-oxo-3-azabicyclo[3.1.0]hexan-3-yl)pyridin-2-yl)ethyl)-1H-pyrazol-4-yl)pyrazine-2-carboxamide], the IC50 was over 10000 nM against human Factor XIa and 0.6 nM on Human plasma kallikrein.
